The values that follow come from ChEMBL document CHEMBL4622965, “Structural Basis of Inhibition of Insulin-Regulated Aminopeptidase by a Macrocyclic Peptidic Inhibitor” (ACS Med Chem Lett, 2020).

The target of assay [1] is Endoplasmic reticulum aminopeptidase 1 (Homo sapiens, UniProt Q9NZ08). As to the kind of experiment: Inhibition of ERAP1 (unknown origin) using Leu-AMC as substrate by fluorescence based assay.
For assay [2], the target named is Endoplasmic reticulum aminopeptidase 2 (Homo sapiens, UniProt Q6P179). As to the kind of experiment: Inhibition of ERAP2 (unknown origin) using Arg-AMC as substrate by fluorescence based assay.
Sequence of Endoplasmic reticulum aminopeptidase 2 (Q6P179 whole entry): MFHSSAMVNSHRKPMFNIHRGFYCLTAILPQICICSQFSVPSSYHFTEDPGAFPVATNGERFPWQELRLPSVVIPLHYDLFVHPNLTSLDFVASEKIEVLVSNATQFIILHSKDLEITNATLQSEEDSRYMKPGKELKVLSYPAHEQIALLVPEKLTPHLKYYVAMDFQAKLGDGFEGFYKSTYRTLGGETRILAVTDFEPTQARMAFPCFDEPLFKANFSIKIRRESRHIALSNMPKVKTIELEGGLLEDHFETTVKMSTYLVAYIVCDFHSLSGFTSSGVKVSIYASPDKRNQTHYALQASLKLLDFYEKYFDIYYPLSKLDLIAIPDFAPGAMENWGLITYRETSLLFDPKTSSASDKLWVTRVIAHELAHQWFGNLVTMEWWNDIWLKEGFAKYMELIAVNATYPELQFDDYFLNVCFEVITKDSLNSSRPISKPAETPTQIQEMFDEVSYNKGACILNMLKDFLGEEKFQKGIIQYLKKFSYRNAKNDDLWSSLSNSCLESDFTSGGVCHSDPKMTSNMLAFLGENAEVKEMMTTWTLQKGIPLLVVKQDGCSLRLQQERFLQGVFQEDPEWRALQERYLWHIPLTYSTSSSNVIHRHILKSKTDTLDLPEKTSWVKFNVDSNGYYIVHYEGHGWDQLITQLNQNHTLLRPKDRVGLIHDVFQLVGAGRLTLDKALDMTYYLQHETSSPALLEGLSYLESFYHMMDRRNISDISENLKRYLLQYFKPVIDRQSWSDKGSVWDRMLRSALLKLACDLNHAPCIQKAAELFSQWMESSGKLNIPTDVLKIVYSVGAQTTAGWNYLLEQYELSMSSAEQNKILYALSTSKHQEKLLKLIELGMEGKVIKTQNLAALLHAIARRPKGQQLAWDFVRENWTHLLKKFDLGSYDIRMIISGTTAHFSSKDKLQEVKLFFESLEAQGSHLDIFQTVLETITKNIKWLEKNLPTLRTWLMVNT

Active and inactive are the calls of the source. No cut-off for these calls is given here.

Sequence of Endoplasmic reticulum aminopeptidase 1 (Q9NZ08 whole entry): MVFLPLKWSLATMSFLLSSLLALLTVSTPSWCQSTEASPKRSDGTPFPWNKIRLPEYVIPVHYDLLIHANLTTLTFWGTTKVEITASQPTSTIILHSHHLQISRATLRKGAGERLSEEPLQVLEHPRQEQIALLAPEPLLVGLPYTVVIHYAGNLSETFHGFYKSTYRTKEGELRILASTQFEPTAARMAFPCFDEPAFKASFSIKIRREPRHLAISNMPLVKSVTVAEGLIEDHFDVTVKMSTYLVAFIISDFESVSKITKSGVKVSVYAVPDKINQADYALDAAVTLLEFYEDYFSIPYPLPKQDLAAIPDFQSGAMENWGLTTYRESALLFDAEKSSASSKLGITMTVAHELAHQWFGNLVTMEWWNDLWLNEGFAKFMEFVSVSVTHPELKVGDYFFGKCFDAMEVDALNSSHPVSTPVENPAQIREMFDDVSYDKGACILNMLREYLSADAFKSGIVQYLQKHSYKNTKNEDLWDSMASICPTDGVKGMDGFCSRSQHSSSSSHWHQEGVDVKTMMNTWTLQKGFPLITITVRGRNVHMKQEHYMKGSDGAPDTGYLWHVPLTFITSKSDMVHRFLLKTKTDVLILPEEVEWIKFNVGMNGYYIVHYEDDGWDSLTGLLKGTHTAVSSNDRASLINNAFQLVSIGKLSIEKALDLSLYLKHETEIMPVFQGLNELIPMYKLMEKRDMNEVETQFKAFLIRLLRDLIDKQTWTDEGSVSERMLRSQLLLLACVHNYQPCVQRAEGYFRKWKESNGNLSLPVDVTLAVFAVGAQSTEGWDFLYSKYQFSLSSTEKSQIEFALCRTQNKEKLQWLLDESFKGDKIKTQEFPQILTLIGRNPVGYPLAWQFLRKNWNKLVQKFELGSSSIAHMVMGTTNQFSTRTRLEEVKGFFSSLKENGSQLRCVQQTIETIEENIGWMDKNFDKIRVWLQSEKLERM

What is called IC50 is the point on the concentration scale where inhibition reaches its midpoint. For the molecule `N[C@H]1CCSSC[C@@H](C(=O)NCc2ccccc2CC(=O)O)NC(=O)C[C@H](Cc2ccc(O)cc2)NC1=O`, in assay [1], the pIC50 result is “inactive”. It took 1.26 µM to reach half-maximal inhibition in assay [2] (IC50).
On to `CC[C@H](C)[C@H](NC(=O)[C@H](Cc1ccc(O)cc1)NC(=O)[C@@H](N)C(C)C)C(=O)N[C@@H](Cc1cnc[nH]1)C(=O)N1CCC[C@H]1C(=O)N[C@@H](Cc1ccccc1)C(=O)O` [ANGIOTENSIN IV], for which the results for the half-inhibitory concentration (IC50) in assay [1] and in assay [2] were 79.4 µM and 7.94 µM, respectively.
